Structures can show the parent of a compound that is named as a salt.

In this experiment the target is T1, human glycine transporter type 1 (Gly-T1) (Homo sapiens, UniProt P48067).
T1 construct: JAR) cells endogenously expressing human glycine transporter type 1 (Gly-T1); endogenous in cells; host or cells: JAR (human placental choriocarcinoma) cells
T1 sequence (P48067 1-706): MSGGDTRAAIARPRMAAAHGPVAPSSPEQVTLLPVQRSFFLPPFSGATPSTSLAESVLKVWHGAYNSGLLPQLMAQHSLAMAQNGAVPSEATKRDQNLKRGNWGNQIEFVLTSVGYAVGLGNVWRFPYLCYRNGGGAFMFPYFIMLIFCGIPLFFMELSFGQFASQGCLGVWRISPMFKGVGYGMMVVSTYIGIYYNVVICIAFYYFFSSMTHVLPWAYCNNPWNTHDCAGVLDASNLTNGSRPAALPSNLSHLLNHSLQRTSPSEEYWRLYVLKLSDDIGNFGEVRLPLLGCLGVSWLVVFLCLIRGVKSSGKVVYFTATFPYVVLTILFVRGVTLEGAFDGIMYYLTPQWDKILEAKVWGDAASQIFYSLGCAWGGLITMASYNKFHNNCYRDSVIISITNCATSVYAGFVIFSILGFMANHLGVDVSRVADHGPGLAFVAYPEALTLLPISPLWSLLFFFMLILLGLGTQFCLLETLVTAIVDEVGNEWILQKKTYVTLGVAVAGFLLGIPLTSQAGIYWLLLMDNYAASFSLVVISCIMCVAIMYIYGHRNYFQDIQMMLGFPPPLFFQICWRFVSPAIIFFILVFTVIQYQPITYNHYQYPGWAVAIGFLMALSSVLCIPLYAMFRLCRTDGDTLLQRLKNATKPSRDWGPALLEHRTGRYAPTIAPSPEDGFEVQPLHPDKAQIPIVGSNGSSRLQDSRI
The experiment can be described thus: Glycine Transporter 1 (GlyT1) uptake assay, [14C] glycine uptake in JAR cells. The experiment is classed as cell-based. The settings on record: approximate IC50; inhibition of [14C] glycine (5 μM) uptake, JAR cells endogenously expressing human Gly-T1. As to the method: This cell-based assay measures the ability of test compounds to inhibit the uptake of glycine by the glycine transporter type 1. Human placental choriocarcinoma (JAR) cells endogenously expressing human glycine transporter type 1 (Gly-T1) were used for this assay. […] Cells were plated at a density of 4×10^4 cells/well and grown at 37° C. in a humidified atmosphere of 5% CO2 for 24 h.
Culture medium was removed from Cytostar plate and JAR cells were incubated with 30 μl of Uptake buffer (120 mM NaCl, 2 mM KCl, 1 mM CaCl2, 1 mM MgCl2, 10 mM Hepes, 5 mM alanine, pH 7.5) with or without compound for 5 min. […] After incubation at room temperature for the desired time usually 1-2 h, sealed 96-well Cytostar plates were counted on a TopCount (Packard).
IC50 curves were generated from the raw data collected from the TopCount and fitted with a four-parameter logistic equation using in-house data analysis tool, Activity Base.
By IC50 is commonly meant the midpoint of a concentration-inhibition curve. On to `O=C(O)CN1CCN([C@H](c2ccccc2)c2cccc(C(F)(F)F)c2)CC1` [Cpd 1, (R)-2-(4-(phenyl(3-(trifluoromethyl)phenyl)methyl)piperazin-1-yl)acetic acid], for which the IC50 turned out to be 79.1 nM. Compound `C[C@@H]1CN([C@H](c2ccccc2)c2cccc(Br)c2)CCN1CC(=O)O` [Cpd 20, 2-((R)-4-((R)-(3-bromophenyl)(phenyl)methyl)-2-methylpiperazin-1-yl)acetic acid dihydrochloride salt] returned an IC50 of 1.51 nM. As for `C[C@@H]1CN([C@H](c2ccccc2)c2cccc(C(F)(F)F)c2)CCN1CC(=O)O` [Cpd 24, 2-((R)-2-methyl-4-((R)-phenyl(3-(trifluoromethyl)phenyl)methyl)piperazin-1-yl)acetic acid dihydrochloride salt], the figure is 3.94 nM.

Turning to `C[C@@H]1CN([C@H](c2ccccc2)c2cccc(-c3ccccc3)c2)CCN1CC(=O)O` [Cpd 30, [(R)-4-((R)-biphenyl-3-yl-phenyl-methyl)-2-methyl-piperazin-1-yl]-acetic acid], the IC50 stood at 0.934 nM. In turn, `Cc1cccc([C@@H](c2ccccc2)N2CCN(CC(=O)O)[C@H](C)C2)c1` [Cpd 34, 2-((R)-2-methyl-4-((R)-phenyl(m-tolyl)methyl)piperazin-1-yl)acetic acid] had an IC50 of 17.8 nM. As for `Cc1cccc(-c2ccc([C@@H](c3ccccc3)N3CCN(CC(=O)O)[C@H](C)C3)cc2)c1` [Cpd 48, [(R)-2-methyl-4-[(R)-(3′-methyl-biphenyl-4-yl)-phenyl-methyl]-piperazin-1-yl]-acetic acid], the figure is 2.14 nM; as for `Cc1ccc(-c2ccc([C@@H](c3ccccc3)N3CCN(CC(=O)O)[C@H](C)C3)cc2)cc1` [Cpd 49, [(R)-2-methyl-4-[(R)-(4′-methyl-biphenyl-4-yl)-phenyl-methyl]-piperazin-1-yl]-acetic acid], 7.2 nM; as for `C[C@@H]1CN([C@H](c2ccccc2)c2ccc(C#Cc3ccccc3)cc2)CCN1CC(=O)O` [Cpd 55A, 2-((R)-2-methyl-4-((R)-phenyl(4-(2-phenylethynyl)phenyl)methyl)piperazin-1-yl)acetic acid], 1.5 nM. Regarding `C[C@@H]1CN(C(c2cccc(C(F)(F)F)c2)C2CC2)CCN1CC(=O)O` (stereo partly drawn) [Cpd 77, 2-((R)-4-(cyclopropyl(3-(trifluoromethyl)phenyl)methyl)-2-methylpiperazin-1-yl)acetic acid dihydrochloride salt], the IC50 was found to be 41.1 nM. The compound `C[C@@H]1CN(C(c2ccc(Cl)cc2)c2ccc(Cl)cc2)CCN1CC(=O)O` [Cpd 78, (R)-2-(4-(bis(4-chlorophenyl)methyl)-2-methylpiperazin-1-yl)acetic acid] gave an IC50 of 4.8 nM. This IC50 is about 8.6-fold lower than that of the compound before. On to `C[C@@H]1CN(C(c2ccc(Cl)cc2)c2ccc(Cl)cc2)CCN1[C@H](C)C(=O)O` [Cpd 82, (R)-2-((R)-4-(bis(4-chlorophenyl)methyl)-2-methylpiperazin-1-yl)propanoic acid], for which the concentration for half-maximal inhibition (IC50) was 2200 nM.
